Experimental data taken from US11091469B2, “Crystalline form of N-[5-(3,5-difluoro-benzyl)-1H-indazol-3-yl]-4-(4-methyl-piperazin-1-yl)-2-(tetrahydro-pyran-4-ylamino)-benzamide” (NERVIANO MEDICAL SCIENCES S.R.L., priority 2016, dated 2021).

What was measured:
[1] = test system: solid tumors with NTRK1, NTRK2, NTRK3, ROS1 or ALK genetic alterations which are fusions; assay: Phase I clinical trials of entrectinib in cancer patients: tumor response (RECIST); format: in vivo, human
Text: (§1) A total of 18 patients across the Phase I studies met our expected Phase 2 eligibility criteria, which include the presence of NTRK1, NTRK2, NTRK3, ROS1 or ALK genetic alterations which are fusions, as opposed to other types of molecular alterations; the patient not having been previously treated with an ALK inhibitor or a ROS1 inhibitor and treatment at or above the recommended Phase II dose.

[2] = Phase I clinical trials of entrectinib in cancer patients: pharmacokinetic measurements
Text: as §1

[3] = Phase I clinical trials of entrectinib in cancer patients: treatment-related adverse events, recommended Phase II dose; conditions: across the Phase I studies
[4] = Thermodynamic stability of crystalline forms; format: physicochemical; conditions: at temperature of about 40° C. or higher, vis-à-vis the three known crystalline forms (forms 1, 2, 3)

pharmacokinetic measurements (exposure vs dose) ([2]; across the daily dosing regimens evaluated) | half-life ([2]; daily dosing regimens, patients) | thermodynamic stability [4] | Structure (SMILES) | response rate, defined as complete and partial responses by RECIST criteria ([1]; 18 patients who met the expected Phase 2 eligibility criteria across both Phase I studies, assessed by the clinical sites) [%] | additional patients remaining on study with stable disease ([1]; among the 18 patients meeting expected Phase 2 eligibility criteria) [patients] | durable responses (duration on study treatment) ([1]; nine responders remaining on study treatment) | responses in patients with NTRK1, NTRK2 or NTRK3 gene rearrangements ([1]; out of 4 patients, NSCLC, colorectal cancer, salivary gland cancer) [responses] | responses in patients with ALK gene rearrangements ([1]; out of 6 patients, two NSCLC and two other solid tumors) [responses] | responses in patients with ROS1 gene rearrangements ([1]; out of 8 patients, all NSCLC, including one complete response) [responses] | responses out of treated patients ([1]; out of 18 treated patients meeting expected Phase 2 eligibility criteria) [responses] | longest time on treatment of responders ([1]; responding patients with ROS1 gene rearrangements, NSCLC) [months] | Grade 3 treatment-related adverse event: cognitive impairment ([3]; 92 patients dosed) [patients] | Grade 3 treatment-related adverse event: diarrhea ([3]; 92 patients dosed) [patient] | Grade 3 treatment-related adverse event: fatigue ([3]; 92 patients dosed) [patients] | incidence of the most frequent treatment-related adverse events ([3]; fatigue, dysgeusia, paresthesia, nausea, myalgia) [%]
dose-proportional increases | compatible with once-daily dosing |  | CN1CCN(c2ccc(C(=O)Nc3n[nH]c4ccc(Cc5cc(F)cc(F)c5)cc34)c(NC3CCOCC3)c2)CC1 [Entrectinib, N-[5-(3,5-Difluoro-benzyl)-1H-indazol-3-yl]-4-(4-methyl-piperazin-1-yl)-2-(tetrahydro-pyran-4-ylamino)-benzamide] | 72 | 3 | up to 21 treatment cycles | 3 | 4 | 6 | 13 | 21 | 2 | 1 | 4 | > 10
 |  | greater thermodynamic stability | CN1CCN(c2ccc(C(=O)Nc3n[nH]c4ccc(Cc5cc(F)cc(F)c5)cc34)c(NC3CCOCC3)c2)CC1 [Form 4, N-[5-(3,5-difluoro-benzyl)-1H-indazol-3-yl]-4-(4-methyl-piperazin-1-yl)-2-(tetrahydro-pyran-4-ylamino)-benzamide] |  |  |  |  |  |  |  |  |  |  |  | 
